Experimental data taken from patent publication US5670538A, “Use of prodelphinidins for obtaining medicaments intended for the treatment of arthrosis” (Laboratoires Dolisos, priority 1992, dated 1997).

Experiments:
Format in all cases: cell-based
[1] = system: polymorphonuclear cells (PMNs); assay: Production of the superoxide anion by the polymorphonuclear cells (PMNs), reduction of ferricytochrome C; conditions: 0.032 mM; phorbol myristate acetate; no conclusion possible on superoxide inhibition
Protocol: 10. Production of the superoxide anion (O°^2) by the polymorphonuclear cells (PMNs).
This is measured with a double beam spectrophotometer which allows the reduction of ferricytochrome C by O°2 tc be monitored. The incubation medium (2.5 ml) is constituted by PBS buffer containing glucose (7.5 mM), ferricytochrome C (0.956 mM), CaCl2 (2.3 mM), MgCl2 (1.1 mM), 7.5.10^6 of cells and the substance to be tested at a concentration of 0.032 mM. The reaction is triggered by adding phorbol myristate acetate at a final concentration of 0.012 mM and the reduction of the cytochrome C is monitored at 550 nm for 10 minutes. The reference cell contains the same material as that described above with an additional 48 μg of superoxide dismutase (SOD)/ml of medium.

[2] = system: human articular chondrocytes; assay: Radioimmunoassay of prostaglandins E2 (PGE2) produced in tridimensional culture of human chondrocytes; conditions: for Amounts of PGE2 in the culture media taken on the 4th and 8th day: 1% Ultroser G, incubation of the 4th to 8th day; for PGE2 in the culture medium: foetal calf serum
From the text: The model used for testing the proanthocyanidols, namely the tridimensional culture of human chondrocytes allows chondrorepair to be quantified by the production of matrix substances: type II collagen, proteoglycans, and chondroresorption by the reduction in the levels of prostaglandin E2 and of OH° and O°2 type free radicals produced.
(§1) 1. Tridimensional culture of human chondrocytes
(§2) The technique used has been described in detail (Bassleer et al., 1986).
(§3) Briefly, human articular chondrocytes are cultivated in DMEM (Dulbecco's Modification of Eagle's Medium--ICN--Gand, Belgium) with either Ultroser G 1% (GIBCO, Gand, Belgium) or 10% of foetal calf serum (ICN--Gand--Belgium), and 50 μg of ascorbic acid/ml added to it. The cartilage originates from the apparently normal zone of heads of human femur suffering from arthrosis, immediately after an operation carried out to insert a total hip prosthesis; it can also originate from the head of a healthy femur, but which has undergone a traumatism and has had to be replaced. This cartilage is then digested by clostridial collagenase 1 mg/ml (Boehringer-Mannheim, Germany) in a buffer (NaCl 120 mM, CaCl2 1 mM, KCl 5 mM, KH2 PO4 1 mM, NaHCO3 25 mM, glucose 2 mM and Hepes 30 mM, pH 7.4) for 24 hours. After 6 successive washings and centrifugations, the chondrocytes, isolated from their matrix, are cultured in flasks (10^6 cells/2 ml of culture medium) placed on a gyrator (10 rpm). The cultures are kept at 37° C. in an atmosphere of air 95%-CO2 5% (Bassleer et al., 1986). Cultivated under these conditions, after 4 to 5 days the chondrocytes form a tridimensional cluster in each flask. These clusters, which at first have a flocculent appearance, then tend to condense during the culture. After two weeks, their diameter is, in general, from 1 to 2 mm.
(§4) The fresh weight of the clusters increases with the duration of the culture, above all during the few first days.
4. Radioimmunoassay of prostaglandins E2 (PGE2)
The radioimmunoassay of PGE2s is carried out according to the method described by Serteyn et al., 1988. The PGE2 is obtained from Sigma (Aldrich-Chemie, Steinheim, Germany) and the ^3 H-PGE2 from NEN (Du Pont de Nemours, Brussels, Belgium). 0.1 ml of incubation buffer (10 mM Tris-HCl […], 0.5% sodium azide (W/V), 1% gelatine (W/V), pH 7.4), 0.1 ml of ^3 H-PGE2 (diluted so as to obtain 10,000 cpm/0.1 ml) and 0.1 ml of antiserum (1/4000) are added successively to 0.1 ml of the sample to be assayed or the reference antigen (0-500 pg). After incubation for 48 hours at 4° C., the free antigen is separated from the antigens bound to the antibodies by a precipitation with carbon-DEXTRAN T70 (0.5 ml per tube). The carbon-Dextran solution contains 5 g/l of neutral carbon, 500 mg of Dextran 70/l. After centrifugation (20 minutes, 3000 rpm, 4° C.), the radioactivity present in the supernatant is measured with a beta counter (Beckman) using liquid scintillation. The sensitivity of the assay is 20 pg/ml.
The accuracy of the method is 5%. The coefficients of the intra- and inter assay variation are 6% and 10% respectively. There is no cross reaction between this anti PGE2 antiserum and other prostanoids (Thromboxane B2, G-keto-PGF1-alpha, PGF2, PGA2), nor with the fatty acids such as arachidonic acid, oleic acid or also linoleic acid.
The results are expressed in quantities of PG, coll. II or PGE2 measured in the culture medium (CM) per μg of DNA. The cumulative measurements are obtained by adding the quantities assayed in the CMs to each renewal of the CM, for successive periods: 0 to 4, 4 to 8, 8 to 12 days of culture. The total production of PG is calculated by adding the cumulative quantities measured in the CMs to those measured in the corresponding clusters. The mean and the standard deviation (m±s.d) are calculated. Comparison of the mean values is carried out using the Mann-Whitney U statistical test. […]

[3] = system: human articular chondrocytes; assay: Synthesis of DNA by incorporation of 3H-thymidine in the chondrocytes, index of cell proliferation; conditions: 1, 10 and 100 pg/ml (so in the source); relative to control values
Protocol: as §1, §2, §3, §4
5. Analysis of the synthesis of DNA by measurement of the incorporation of ^3 H-thymidine
After different culture durations, the chondrocytes are cultivated in nutritive medium with the addition of 2 uCi/ml (5 Ci/mmole) of methyl ^3 H-thymidine (^3 H-TDN) (Amersham, Brussels, Belgium) for 24 hours. […]
The radioactivity incorporated in the cluster is then measured using a beta scintillation counter.

SMILES | Reduction of ferricytochrome C by PMNs [1] | Amounts of PGE2 in the culture media taken on the 4th and 8th day ([2]; 1 μg/ml) | Amounts of PGE2 in the culture media taken on the 4th and 8th day ([2]; 10 μg/ml) | Amounts of PGE2 in the culture media taken on the 4th and 8th day ([2]; 100 μg/ml) | PGE2 in the culture medium ([2]; 0-4 days, 10 μg/ml) [pg/μg DNA/96 H] | PGE2 in the culture medium ([2]; 0-4 days, 100 μg/ml) [pg/μg DNA/96 H] | PGE2 in the culture medium ([2]; 4-8 days, 10 μg/ml) [pg/μg DNA/96 H] | PGE2 in the culture medium ([2]; 4-8 days, 100 μg/ml) [pg/μg DNA/96 H] | Incorporation of 3H thymidine in the chondrocytes [3]
Oc1cc(O)c2c(c1)O[C@H](c1cc(O)c(O)c(O)c1)[C@@H](O)[C@@H]2c1c(O)cc(O)c2c1O[C@H](c1cc(O)c(O)c(O)c1)[C@H](O)C2 [Substance Ia, GC-(4 alpha→8) EGC] | strongly reduced | 91.5 ± 9 pg/μg of DNA | 44 ± 0.6 pg/μg of DNA | 25 ± 13 pg/μg of DNA | 312 ± 15 | 143 ± 25 | 27 ± 2.5 | 25 ± 3.5 | None of the substances Ia, lb and Ic modifies the incorporation
Oc1cc(O)c2c(c1)O[C@H](c1cc(O)c(O)c(O)c1)[C@@H](O)[C@@H]2c1c(O)cc(O)c2c1O[C@H](c1cc(O)c(O)c(O)c1)[C@@H](O)C2 [Substance Ib, GC-(4 alpha→8) GC] | strongly reduced | 129 ± 19 pg/μg of DNA | 76 ± 14 pg/μg of DNA | 48 ± 15 pg/μg of DNA | 130 ± 21 | 121 ± 16 | 30 ± 1.7 | 25 ± 1 | None of the substances Ia, lb and Ic modifies the incorporation
Oc1cc(O)c2c(c1)O[C@H](c1cc(O)c(O)c(O)c1)[C@@H](O)[C@@H]2c1c(O)cc(O)c2c1O[C@H](c1cc(O)c(O)c(O)c1)[C@@H](O)[C@@H]2c1c(O)cc(O)c2c1O[C@H](c1cc(O)c(O)c(O)c1)[C@@H](O)C2 [Substance Ic, GC-(4 alpha→8) GC-(4 a→8)-GC] | – | 101 ± 7 pg/μg of DNA | 81 ± 12 pg/μg of DNA | 39 ± 10 pg/μg of DNA | 160 ± 17 | 153 ± 15 | 35.5 ± 2.1 | 29 ± 3.5 | None of the substances Ia, lb and Ic modifies the incorporation
